For orientation: AC50 means the concentration at which the activity in the assay is half-maximal. One may read the EC50 as the midpoint of the concentration-response curve. A word on the IC50: it is the concentration that gives 50% inhibition.

Experiment [1] can be described thus: Luminescence Cell-Based Dose Retest to Confirm Inhibitors of Cancer Stem Cells. [Related pubchem assays (depositor defined):AID2717, AID2721]. It counts as functional. Particulars: Homo sapiens.
For experiment [2], the target named is FAD-linked sulfhydryl oxidase ALR (Homo sapiens, UniProt P55789). In words: ALR-catalysed DTT oxidation blockers – biochemical, H2O2 detection, luminescence, cherry-pick, dose response (AID 493248).
Experiment [3] can be described thus: A cytotoxicity screen of small molecule inhibitors of the PhoP region in Salmonella typhi identified in the primary screen. [Related pubchem assays: 1850, 1864, 1985 ]. Type of experiment: functional.
Experiment [4] is described as follows: M. tuberculosis H37Rv growth inhibitors, H37Rv strain (AID 1626). It counts as functional.
A further experiment has as its system H4. The experiment is described as follows: Luminescence Cell-Based Dose Response HTS to Identify Activators of 5'UTR Stem-Loop Driven Prion Protein mRNA Translation in H4 Neuroglioblastoma Cells. [Related pubchem assays: 1829 (Project Summary), 1814 (Primary HTS)]. It counts as functional. Particulars: Homo sapiens.
Experiment [5] can be described thus: Luminescence Cell-Based Dose Response to Identify Activators of Luciferase Translation or Activity in H4-C Neuroglioblastoma Cells. [Related pubchem assays: 1829 (Project Summary), 1814 (Primary HTS)]. It counts as functional.
A short description of experiment [6]: Luminescence Cell-Based Dose Confirmation to Identify Activators of 5'UTR Stem-Loop Driven Alpha-Synuclein mRNA Translation in H4 Neuroglioblastoma Cells. [Related pubchem assays: 1829 (Project Summary), 1814 (Primary HTS)]. Type of experiment: functional.
Experiment [7] in a line: Luminescence Cell-Based Dose Response to Identify Activators of 5'UTR Stem-Loop Driven Prion Protein mRNA Translation in H4-C Neuroglioblastoma Cells. [Related pubchem assays: 1829 (Project Summary), 1814 (Primary HTS)]. Type of experiment: functional.
The nature of experiment [8]: Luminescence Cell-Based Dose Response HTS to Identify Activators of Luciferase Translation or Activity in H4 […] Cells. [Related pubchem assays: 1829 (Project Summary), 1814 (Primary HTS)]. It counts as functional.
Experiment [9] in a line: Luminescence Cell-Based Dose Confirmation HTS to Identify Activators of 5'UTR Stem-Loop Driven Alpha-Synuclein mRNA Translation in H4 Neuroglioblastoma Cells. [Related pubchem assays: 1829 (Project Summary), 1814 (Primary HTS)]. Type of experiment: functional.
The target of the next experiment is T1, Caspase-3 (Homo sapiens, UniProt P42574).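 Further: Dose-response selectivity test against caspase-3 for candidate inhibitors of sentrin-specific proteases (SENPs).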
T1 sequence (P42574 whole entry): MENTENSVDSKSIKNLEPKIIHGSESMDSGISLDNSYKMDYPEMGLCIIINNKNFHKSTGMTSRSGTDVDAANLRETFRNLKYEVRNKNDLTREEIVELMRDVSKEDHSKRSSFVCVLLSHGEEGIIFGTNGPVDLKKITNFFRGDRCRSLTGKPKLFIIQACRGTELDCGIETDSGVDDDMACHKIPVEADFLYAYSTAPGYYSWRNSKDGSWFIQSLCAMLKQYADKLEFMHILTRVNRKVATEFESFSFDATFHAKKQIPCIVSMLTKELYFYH
Type of experiment: functional.

In experiment [10] the target is T2, Sentrin-specific protease 8 (Homo sapiens, UniProt Q96LD8).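 Further: luminescence read-out of SENP8 inhibition, dose-response confirmation following an ultra-high-throughput screen.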
T2 sequence (Q96LD8 whole entry): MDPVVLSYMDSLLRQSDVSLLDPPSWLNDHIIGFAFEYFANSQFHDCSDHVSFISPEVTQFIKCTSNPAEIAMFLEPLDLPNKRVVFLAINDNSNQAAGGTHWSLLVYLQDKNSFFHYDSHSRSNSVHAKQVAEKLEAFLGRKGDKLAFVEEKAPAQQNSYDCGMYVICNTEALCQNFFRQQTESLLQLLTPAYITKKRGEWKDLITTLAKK
Type of experiment: functional.

For experiment [11], the target named is T3, Sentrin-specific protease 6 (Homo sapiens, UniProt Q9GZR1).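 Further: Luminescence-based dose-response confirmatory assay of SENP6 inhibition, following up an ultra-high-throughput screen.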
T3 sequence (Q9GZR1 whole entry): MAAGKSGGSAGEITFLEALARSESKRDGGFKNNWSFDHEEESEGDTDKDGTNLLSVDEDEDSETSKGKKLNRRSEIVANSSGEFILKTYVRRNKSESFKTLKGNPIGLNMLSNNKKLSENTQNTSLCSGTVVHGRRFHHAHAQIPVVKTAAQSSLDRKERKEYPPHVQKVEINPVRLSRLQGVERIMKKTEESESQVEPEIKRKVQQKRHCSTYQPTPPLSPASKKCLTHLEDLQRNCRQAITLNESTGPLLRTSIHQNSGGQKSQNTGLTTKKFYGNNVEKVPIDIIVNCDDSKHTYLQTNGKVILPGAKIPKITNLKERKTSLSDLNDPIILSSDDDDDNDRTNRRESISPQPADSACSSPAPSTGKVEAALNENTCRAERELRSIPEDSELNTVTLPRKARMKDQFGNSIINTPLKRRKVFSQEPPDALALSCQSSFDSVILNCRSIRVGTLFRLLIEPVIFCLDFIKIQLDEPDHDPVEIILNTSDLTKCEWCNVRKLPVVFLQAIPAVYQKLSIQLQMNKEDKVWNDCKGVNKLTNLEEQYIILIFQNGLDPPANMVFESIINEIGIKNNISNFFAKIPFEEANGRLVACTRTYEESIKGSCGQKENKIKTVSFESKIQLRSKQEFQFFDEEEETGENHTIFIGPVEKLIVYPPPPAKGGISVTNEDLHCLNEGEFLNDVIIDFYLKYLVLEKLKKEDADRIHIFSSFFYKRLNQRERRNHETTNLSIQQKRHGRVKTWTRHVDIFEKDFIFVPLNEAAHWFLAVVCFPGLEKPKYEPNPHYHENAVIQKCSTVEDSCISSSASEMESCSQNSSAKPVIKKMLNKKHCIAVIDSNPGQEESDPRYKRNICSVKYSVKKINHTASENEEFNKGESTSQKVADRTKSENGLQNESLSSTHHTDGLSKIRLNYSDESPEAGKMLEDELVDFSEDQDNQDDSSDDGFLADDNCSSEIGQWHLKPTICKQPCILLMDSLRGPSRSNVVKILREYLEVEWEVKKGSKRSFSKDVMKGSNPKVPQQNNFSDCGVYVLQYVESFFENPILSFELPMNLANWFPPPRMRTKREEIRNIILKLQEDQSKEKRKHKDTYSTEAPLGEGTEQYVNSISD
Type of experiment: functional.

The target of experiment [12] is T4, Sentrin-specific protease 7 (Homo sapiens, UniProt Q9BQF6).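 Further: Luminescence-based dose-response confirmation of ultra-high-throughput screening hits, measuring inhibition of SENP7.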
T4 sequence (Q9BQF6 whole entry): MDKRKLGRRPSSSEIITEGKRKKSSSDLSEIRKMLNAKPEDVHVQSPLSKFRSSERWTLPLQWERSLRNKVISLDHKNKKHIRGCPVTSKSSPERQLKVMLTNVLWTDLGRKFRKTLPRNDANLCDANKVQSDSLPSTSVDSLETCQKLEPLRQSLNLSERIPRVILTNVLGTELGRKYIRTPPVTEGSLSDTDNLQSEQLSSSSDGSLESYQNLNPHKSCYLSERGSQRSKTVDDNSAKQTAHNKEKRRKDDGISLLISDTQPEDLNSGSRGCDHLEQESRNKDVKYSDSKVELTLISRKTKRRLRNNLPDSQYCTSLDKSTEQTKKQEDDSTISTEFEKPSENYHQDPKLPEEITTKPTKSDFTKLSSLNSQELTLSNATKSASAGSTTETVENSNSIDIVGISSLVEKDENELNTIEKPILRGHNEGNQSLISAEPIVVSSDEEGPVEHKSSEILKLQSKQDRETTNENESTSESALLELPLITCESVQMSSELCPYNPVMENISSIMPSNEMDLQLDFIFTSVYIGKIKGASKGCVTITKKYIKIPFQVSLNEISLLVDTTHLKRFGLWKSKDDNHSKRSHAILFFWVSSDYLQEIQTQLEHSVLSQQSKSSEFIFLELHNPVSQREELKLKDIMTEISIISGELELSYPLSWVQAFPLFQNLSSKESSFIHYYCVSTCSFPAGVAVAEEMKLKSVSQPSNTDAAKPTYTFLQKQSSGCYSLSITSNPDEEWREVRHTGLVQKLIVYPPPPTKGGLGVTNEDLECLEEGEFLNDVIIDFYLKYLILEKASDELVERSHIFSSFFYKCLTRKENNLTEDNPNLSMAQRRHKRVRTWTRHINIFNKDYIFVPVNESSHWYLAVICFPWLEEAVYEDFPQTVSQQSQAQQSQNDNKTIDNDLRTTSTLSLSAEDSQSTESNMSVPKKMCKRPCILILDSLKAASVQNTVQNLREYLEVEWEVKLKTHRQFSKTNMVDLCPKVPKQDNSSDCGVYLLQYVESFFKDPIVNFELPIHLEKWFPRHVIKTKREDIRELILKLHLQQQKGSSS
It counts as functional.

For experiment [13], the target named is T5, Mannose-6-phosphate isomerase (Homo sapiens, UniProt P34949).
T5 sequence (P34949 whole entry): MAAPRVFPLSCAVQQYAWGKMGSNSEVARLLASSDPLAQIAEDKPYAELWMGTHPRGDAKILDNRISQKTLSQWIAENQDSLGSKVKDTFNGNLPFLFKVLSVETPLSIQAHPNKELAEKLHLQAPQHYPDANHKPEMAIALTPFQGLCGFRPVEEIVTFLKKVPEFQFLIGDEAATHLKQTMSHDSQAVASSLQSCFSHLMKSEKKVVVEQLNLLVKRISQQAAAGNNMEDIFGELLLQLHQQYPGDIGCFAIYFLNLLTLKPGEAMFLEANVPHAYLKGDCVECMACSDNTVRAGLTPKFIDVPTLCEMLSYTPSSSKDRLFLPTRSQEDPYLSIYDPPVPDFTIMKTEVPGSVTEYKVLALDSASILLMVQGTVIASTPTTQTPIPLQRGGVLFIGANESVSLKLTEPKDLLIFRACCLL
The experiment is described as follows: MPI enzyme activity inhibition – biochemical, fluorescence intensity, coupled assay, primary screen (AID 1209).

In experiment [14] the target is T5, Mannose-6-phosphate isomerase. In words: MPI inhibition at elevated mannose 6-phosphate – biochemical, fluorescence intensity, high mannose 6-phosphate, primary screen (AID 1220).

Calls of active or inactive are those of the source. A value given as a limit tells only on which side of the number the result lay.

FAD-linked sulfhydryl oxidase ALR, sequence (P55789 whole entry): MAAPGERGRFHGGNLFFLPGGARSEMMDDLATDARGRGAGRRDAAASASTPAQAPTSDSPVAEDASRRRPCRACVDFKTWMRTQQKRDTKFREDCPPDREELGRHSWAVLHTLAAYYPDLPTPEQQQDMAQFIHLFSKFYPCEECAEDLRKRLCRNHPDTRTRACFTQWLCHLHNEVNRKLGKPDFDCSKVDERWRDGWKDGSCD

Take `O=C(NCc1ccco1)c1ccc2c(c1)N(Cc1ccccc1)CCS2`: the AC50 was 11.3 µM (active) in experiment [1] and 81.2 µM (active) in [2]. Further, in experiment [3], the EC50 was > 50 µM (active).
With `CCOC(=O)c1ccc(NC(C)=C2C(=O)NC(=O)NC2=O)cc1`, the IC50 in experiment [4] is > 100 µM (active).
As for `CC(C)(C)c1ccc(C(=O)NC(=S)N2CCOCC2)cc1`, the EC50 was 0.111 µM (active) with H4; > 12 µM (not active) in experiment [5]; 2.81 µM (active) in experiment [6]; 0.418 µM (active) in experiment [7]; 0.61 µM (active) in experiment [8].
Consider `CCCCC(=O)Nc1ccc2c(c1)oc1ccccc12`, for which the IC50 in experiment [4] was > 100 µM (active).
Still for that read-out and setting: the same measure for `COc1ccc(NC2=CC(c3ccc(OC)cc3)N(c3ccc(OC)cc3)C2=O)cc1` (stereo not drawn): > 100 µM (active).
As to `O=C1c2ccccc2C(=O)N1CCSc1ccccc1`, the EC50 in [9] is 21.9 µM (active); in the experiment with H4, < 0.1 µM (active); in experiment [5] it was 0.42 µM (active); in experiment [6] it was 0.279 µM (active); in [7], 1.41 µM (active); in [8], 0.18 µM (active). Moreover, the IC50 at Caspase-3 is 14.5 µM (active); in experiment [10], 35 µM (active); in experiment [11] it was 30.4 µM (active); in experiment [12], 9.56 µM (active).
In the case of `CC(C)CCSc1cc(NCCO)c([N+](=O)[O-])c2nonc12`, the IC50 in experiment [13] and in [14] was > 50 µM (not active) each time.
With `c1ccc(CSCc2cn3ccsc3n2)cc1`, the values for the EC50 (in [9]; with H4; in experiment [8]) were 0.562 µM (active), 7.85 µM (active) and 40.7 µM (active), respectively. The IC50 in [13] and in experiment [14] was > 50 µM (not active) in each case.
Turning to `Cc1nc2cc(NC(=O)CCS(=O)(=O)c3ccccc3)ccc2s1`, the EC50 is 0.264 µM (active) in [5], 0.069 µM (active) in [6], 0.312 µM (active) in [7] and < 0.1 µM (inconclusive) in [8].
Regarding `C=CCSc1nnc(NC(=O)CSc2nc3ccccc3o2)s1`, in experiment [3], the EC50 is > 50 µM (active).
